Results on 14 compounds are retold here after PubChem BioAssay (NCI).

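Grown in 96-well plates, cells were treated for 48 hours with each compound at five concentrations. Insufficient inhibition: endpoint recorded as highest concentration tested. GI50: concentration for 50% inhibition of growth. The concentration for full growth arrest is given as TGI.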

Holding throughout (assay): DTP human tumour cell line panel, 48 h
Assay [1] relates to 786-0 renal.
Assay [2] has as its system A498 renal.
In assay [3] the test system is A549 NSCLC.
Assay [4] relates to CAKI-1 renal.
Assay [5] relates to HL-60(TB) leukemia.
In assay [6] the test system is SK-MEL-5 melanoma.
For assay [7], the system named is SW-620 colon.
The subject of assay [8] is UACC-257 melanoma.
Assay [9] deals with MDA-MB-435.

Take `CCCC1(CC(=O)O)OCCc2c1[nH]c1ccccc21` (configuration not stated): the TGI in assay [1], in assay [2], in [3], in assay [4], in [5] and in assay [6] was greater than 100 µM throughout. For the same compound, the TGI in [7] and in assay [8] was greater than 100 µM each time.

On to `COC(=O)C(=O)CC(=O)CCn1[nH]c(=O)c(Cl)c(Cl)c1=O`, for which the TGI in assay [1], in assay [2], in assay [3], in assay [4], in [5] and in assay [6] was greater than 100 µM in each case. The TGI in assay [7] and in assay [8] was greater than 100 µM each time.

On to `COc1ccc2c(c1)OC1=C(C(=O)OC1)C2c1cc(OC)c2c(c1)OCCO2` (configuration not stated), for which the GI50 (usually the concentration that inhibits growth by half) in [1] is 0.068 µM; in assay [2], 0.0249 µM; in assay [3], 0.0603 µM; in assay [4] it was 0.0411 µM; in assay [5], 0.042 µM; in assay [9] it was 0.021 µM. The GI50 is 0.0347 µM in assay [6], 0.0393 µM in assay [7] and 0.0458 µM in [8]. Besides, the TGI – broadly, the concentration giving total growth inhibition – in [1] was greater than 23.1 µM; in [2], 0.232 µM; in assay [3] it was greater than 100 µM; in assay [4] it was greater than 100 µM; in [5] it was 0.174 µM; in assay [9], 0.056 µM. Besides, the results for the concentration for total growth inhibition (TGI) in assay [6], in assay [7] and in [8] were 0.535 µM, greater than 100 µM and greater than 100 µM, respectively.

In the case of `COc1cc(NS(=O)(=O)c2ccc(C)cc2)c2nccnc2c1`, the TGI in assay [1] was greater than 100 µM; in assay [2] it was greater than 100 µM; in [3], greater than 100 µM; in [4] it was greater than 100 µM; in assay [5], 51.7 µM; in [6], 63.7 µM. For the same compound, the concentration for total growth inhibition (TGI) in [7] and in assay [8] was greater than 100 µM throughout.

For the compound `N#C/C(=C/c1cccc(Oc2ccccc2)c1)c1ccccc1`, the TGI in assay [1], in [2], in assay [3], in assay [4], in assay [5] and in assay [6] was greater than 100 µM in each case. Besides, the TGI in assay [7] and in assay [8] was greater than 100 µM throughout.

As for `CCC[CH2][Sn]([CH2]CCC)([O]C(=O)CN)[O]C(=O)CN`, the GI50 was 33 µM in assay [1]; 44.8 µM in [2]; greater than 100 µM in [3]; 14.7 µM in [4]; 18.5 µM in [5]; 66.6 µM in assay [6]. Further, the GI50 in assay [7] was 18.1 µM; in assay [8], 50.4 µM. Besides, the TGI in assay [1] was greater than 100 µM; in assay [2], greater than 100 µM; in assay [3], greater than 100 µM; in assay [4], 51.1 µM; in [5], 65 µM; in assay [6], greater than 100 µM. Besides, the TGI in [7] is 37 µM; in assay [8], greater than 100 µM.

As to `C[C@]12CC=CC(=O)[C@@]1(C)CCC(=O)C2`, the TGI in assay [1], in assay [2], in [3], in [4], in assay [5] and in [6] was greater than 100 µM each time. For the same compound, the concentration for total growth inhibition (TGI) in [7] and in [8] was greater than 100 µM throughout.

`Cc1ccc(S(=O)(=O)OC2CC=CC2)cc1`: the total growth inhibition concentration (TGI) in assay [1], in assay [3], in [4], in assay [5], in assay [6] and in assay [7] was greater than 100 µM each time. In addition, the TGI in assay [8] was greater than 100 µM.

In the case of `Cc1ccc(S(=O)(=O)N/N=C2\CCCCC23CCC(=O)NC3)cc1` (configuration not stated), the TGI in [1], in assay [2], in assay [3], in assay [4], in assay [5] and in assay [6] was greater than 100 µM each time. For the same compound, the TGI in [7] and in assay [8] was greater than 100 µM each time.

Take `CC(=O)C1C(c2ccccc2)C2(C)OC(=O)C(C#N)C12C` (configuration not stated): the TGI in assay [1], in assay [3], in assay [5], in assay [6] and in assay [7] was greater than 100 µM in each case.

As to `CCCCCCCCCCCCCP(=O)(O)O`, the total growth inhibition concentration (TGI) in assay [1], in [2], in assay [3], in [5], in assay [6] and in assay [7] was greater than 100 µM throughout. In [8], this compound returned a concentration for total growth inhibition (TGI) greater than 100 µM.

As to `[N-]=[N+]=NCCCn1c2c(c3ccc([N+](=O)[O-])cc3c1=O)C(=O)c1ccccc1-2`, the GI50 is greater than 100 µM in [1]; 14.4 µM in assay [3]; 5.11 µM in [4]; 0.0101 µM in assay [5]; greater than 100 µM in assay [9]; 2.39 µM in [6]. The values for the GI50 in assay [7] and in assay [8] were 5.26 µM and 0.244 µM, respectively. Further, the concentration for total growth inhibition (TGI) was greater than 100 µM in assay [1]; greater than 100 µM in assay [3]; 43.3 µM in [4]; greater than 100 µM in assay [5]; greater than 100 µM in assay [9]; 9.31 µM in assay [6]. In addition, the TGI in assay [7] was greater than 100 µM; in assay [8], 56.8 µM.

On to `NC1=NN(c2ccccc2)C(=O)C1C(=O)CCC(=O)Nc1cccc(Cl)c1` (configuration not stated), for which the TGI in assay [1], in assay [2], in assay [3], in [4], in [5] and in [6] was greater than 100 µM each time. Moreover, the TGI in [7] and in assay [8] was greater than 100 µM in each case.

As for `COc1ccc2nc3cc(Cl)ccc3c(Sc3ccc([N+](=O)[O-])cc3C)c2c1`, the concentration for total growth inhibition (TGI) in [1], in [2], in assay [3], in assay [4], in assay [6] and in assay [7] was greater than 100 µM each time. The compound also showed a total growth inhibition concentration (TGI) in [8] greater than 100 µM.
